Assay results reported in ChEMBL document CHEMBL1140798, “Novel thiol-based TACE inhibitors. Part 2: Rational design, synthesis, and SAR of thiol-containing aryl sulfones” (Bioorg Med Chem Lett, 2008).

Experiments:
[1] = molecular target: Disintegrin and metalloproteinase domain-containing protein 17 (Homo sapiens, UniProt P78536); assay: Inhibition of TACE
[2] = molecular target: Matrix metalloproteinase-9 (Homo sapiens, UniProt P14780); assay: Inhibition of MMP9
Neutrophil collagenase = Neutrophil collagenase (Homo sapiens, UniProt P22894); assay: Inhibition of MMP8
Neutrophil collagenase, sequence (P22894 whole entry): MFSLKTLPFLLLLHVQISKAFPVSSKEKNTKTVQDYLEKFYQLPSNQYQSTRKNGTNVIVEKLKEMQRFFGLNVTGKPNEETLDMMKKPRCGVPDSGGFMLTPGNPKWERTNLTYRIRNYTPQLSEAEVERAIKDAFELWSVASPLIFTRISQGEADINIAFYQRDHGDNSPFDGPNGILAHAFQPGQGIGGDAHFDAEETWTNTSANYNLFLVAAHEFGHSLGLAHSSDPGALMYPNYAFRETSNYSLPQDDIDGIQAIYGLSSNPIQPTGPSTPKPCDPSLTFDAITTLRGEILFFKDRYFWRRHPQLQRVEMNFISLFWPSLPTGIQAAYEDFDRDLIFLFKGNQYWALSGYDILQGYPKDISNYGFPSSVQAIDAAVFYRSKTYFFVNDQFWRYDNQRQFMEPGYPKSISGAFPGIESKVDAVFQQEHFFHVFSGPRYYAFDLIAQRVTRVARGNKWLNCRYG

Collagenase 3 = Collagenase 3 (Homo sapiens, UniProt P45452); assay: Inhibition of MMP13
Matrilysin = molecular target: T1, Matrilysin (Homo sapiens, UniProt P09237); assay: Inhibition of MMP7
T1 sequence (P09237 whole entry): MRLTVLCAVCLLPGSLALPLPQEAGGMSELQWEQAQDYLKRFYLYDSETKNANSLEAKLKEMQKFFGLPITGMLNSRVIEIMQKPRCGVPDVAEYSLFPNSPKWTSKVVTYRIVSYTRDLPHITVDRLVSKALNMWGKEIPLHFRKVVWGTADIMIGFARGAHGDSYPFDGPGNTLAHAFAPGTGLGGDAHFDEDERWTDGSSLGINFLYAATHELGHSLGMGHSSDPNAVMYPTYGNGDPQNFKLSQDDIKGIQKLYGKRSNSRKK

[3] = molecular target: 72 kDa type IV collagenase (Homo sapiens, UniProt P08253); assay: Inhibition of MMP2
72 kDa type IV collagenase, sequence (P08253 whole entry): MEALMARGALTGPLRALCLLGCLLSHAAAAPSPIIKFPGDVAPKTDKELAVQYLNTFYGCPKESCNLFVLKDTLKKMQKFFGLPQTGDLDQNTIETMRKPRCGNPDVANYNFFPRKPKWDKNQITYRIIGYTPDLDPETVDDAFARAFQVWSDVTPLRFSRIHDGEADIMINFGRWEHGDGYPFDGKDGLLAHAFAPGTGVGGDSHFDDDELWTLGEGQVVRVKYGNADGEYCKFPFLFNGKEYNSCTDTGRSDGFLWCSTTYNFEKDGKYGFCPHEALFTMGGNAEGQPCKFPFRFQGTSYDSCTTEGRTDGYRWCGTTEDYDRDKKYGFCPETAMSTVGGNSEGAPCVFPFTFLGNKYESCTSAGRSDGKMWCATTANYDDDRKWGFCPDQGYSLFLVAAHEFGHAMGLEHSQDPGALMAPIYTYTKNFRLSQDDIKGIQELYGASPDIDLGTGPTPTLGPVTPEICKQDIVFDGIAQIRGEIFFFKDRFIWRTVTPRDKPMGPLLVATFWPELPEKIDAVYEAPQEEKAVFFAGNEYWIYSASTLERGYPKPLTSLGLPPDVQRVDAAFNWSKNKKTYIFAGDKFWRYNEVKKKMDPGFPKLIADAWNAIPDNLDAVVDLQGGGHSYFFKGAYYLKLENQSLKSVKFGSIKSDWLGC

Disintegrin and metalloproteinase domain-containing protein 17, sequence (P78536 whole entry, the tested form may be a part): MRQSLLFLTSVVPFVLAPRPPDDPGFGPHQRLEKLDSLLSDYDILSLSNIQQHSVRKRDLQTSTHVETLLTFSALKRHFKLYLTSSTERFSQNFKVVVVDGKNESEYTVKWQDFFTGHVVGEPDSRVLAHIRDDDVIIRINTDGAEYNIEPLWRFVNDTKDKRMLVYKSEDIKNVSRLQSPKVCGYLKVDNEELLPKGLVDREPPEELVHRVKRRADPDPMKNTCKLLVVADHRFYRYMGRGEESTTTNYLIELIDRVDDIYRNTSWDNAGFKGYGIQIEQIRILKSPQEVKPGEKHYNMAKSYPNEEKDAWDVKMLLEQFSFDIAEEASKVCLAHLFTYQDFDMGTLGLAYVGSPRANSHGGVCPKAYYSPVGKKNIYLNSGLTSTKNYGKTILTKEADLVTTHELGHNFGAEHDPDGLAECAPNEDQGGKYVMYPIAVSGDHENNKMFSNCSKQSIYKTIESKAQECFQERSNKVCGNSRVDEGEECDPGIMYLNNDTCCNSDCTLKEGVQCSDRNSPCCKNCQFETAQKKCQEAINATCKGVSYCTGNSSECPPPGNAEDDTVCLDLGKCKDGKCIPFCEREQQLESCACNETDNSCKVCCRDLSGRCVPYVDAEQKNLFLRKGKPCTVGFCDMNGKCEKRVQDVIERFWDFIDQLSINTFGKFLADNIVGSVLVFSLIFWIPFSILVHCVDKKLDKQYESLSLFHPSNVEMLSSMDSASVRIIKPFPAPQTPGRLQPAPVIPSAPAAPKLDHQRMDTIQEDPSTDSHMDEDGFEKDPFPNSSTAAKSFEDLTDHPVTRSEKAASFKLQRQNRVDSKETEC
Matrix metalloproteinase-9, sequence (P14780 whole entry): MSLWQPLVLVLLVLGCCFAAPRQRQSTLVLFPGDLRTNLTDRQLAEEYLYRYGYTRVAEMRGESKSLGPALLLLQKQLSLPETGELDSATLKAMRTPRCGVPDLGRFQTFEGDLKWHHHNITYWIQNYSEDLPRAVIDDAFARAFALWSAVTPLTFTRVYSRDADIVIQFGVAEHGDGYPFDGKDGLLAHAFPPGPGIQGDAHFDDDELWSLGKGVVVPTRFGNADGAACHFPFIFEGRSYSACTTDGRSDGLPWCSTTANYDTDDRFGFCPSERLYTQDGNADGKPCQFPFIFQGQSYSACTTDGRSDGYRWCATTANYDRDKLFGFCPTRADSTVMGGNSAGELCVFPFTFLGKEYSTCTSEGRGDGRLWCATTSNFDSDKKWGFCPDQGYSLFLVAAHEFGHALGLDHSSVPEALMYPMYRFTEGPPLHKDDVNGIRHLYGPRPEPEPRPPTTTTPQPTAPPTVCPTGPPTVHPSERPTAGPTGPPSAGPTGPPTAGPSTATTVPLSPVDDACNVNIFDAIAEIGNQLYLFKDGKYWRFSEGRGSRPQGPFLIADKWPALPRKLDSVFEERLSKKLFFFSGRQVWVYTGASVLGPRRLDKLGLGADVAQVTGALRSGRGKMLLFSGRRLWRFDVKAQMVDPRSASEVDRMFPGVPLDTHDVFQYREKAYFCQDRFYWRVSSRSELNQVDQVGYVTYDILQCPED

Ki [1] [nM] | Structure (SMILES) | other results
8 | CC#CCOc1ccc(S(=O)(=O)CCS)cc1 | –
50 | CC#CCOc1ccc(S(=O)(=O)C2CCC(S)C2)cc1 (stereo unspecified) | –
4.5 | CC#CCNc1ccc(S(=O)(=O)CCCS)cc1 | –
– | CC#CCOc1ccc(S(=O)(=O)CCCS)cc1 | Ki [2]: 6.3 µM; Ki (Neutrophil collagenase): 2700 nM; Ki (Collagenase 3): 1700 nM; Ki (Matrilysin): > 2500 nM; Ki [3]: 1300 nM
30 | CC#CCOc1ccc(S(=O)(=O)[C@@H]2CCC[C@@H](S)C2)cc1 | –
2 | CC#CCNc1ccc(S(=O)(=O)CCS)cc1 | –

Structure (SMILES) | Ki [1] [nM] | other results
CC#CCNc1ccc(S(=O)(=O)[C@@H]2CCC[C@@H](S)C2)cc1 | 17 | –
